Data as given in ChEMBL document CHEMBL1139293 (Bioorg Med Chem Lett, 2009).
Calls of active or inactive are those of the source. The calls are words filed in the database; no cut-off is given here.

Legend:
[1] = target: T1, Neuronal acetylcholine receptor; alpha3/beta4 (Homo sapiens, UniProt P30926+P32297); assay: Agonist activity at alpha3beta4 nAChR expressed in HEK293 cells at 300 uM by FLIPR membrane potential assay; assay type: functional, cell-based
[2] = target: T1, Neuronal acetylcholine receptor; alpha3/beta4; assay: Agonist activity at alpha3beta4 nAChR expressed in HEK293 cells by FLIPR membrane potential assay; assay type: functional, cell-based
[3] = target: Neuronal acetylcholine receptor subunit alpha-7 (Homo sapiens, UniProt P36544); assay: Displacement of [3H]MLA from alpha7 nAChR/5HT3A receptor expressed in HEK293 cells; assay type: cell-based
Sequence of Neuronal acetylcholine receptor subunit alpha-7 (P36544 23-502 limits assumed): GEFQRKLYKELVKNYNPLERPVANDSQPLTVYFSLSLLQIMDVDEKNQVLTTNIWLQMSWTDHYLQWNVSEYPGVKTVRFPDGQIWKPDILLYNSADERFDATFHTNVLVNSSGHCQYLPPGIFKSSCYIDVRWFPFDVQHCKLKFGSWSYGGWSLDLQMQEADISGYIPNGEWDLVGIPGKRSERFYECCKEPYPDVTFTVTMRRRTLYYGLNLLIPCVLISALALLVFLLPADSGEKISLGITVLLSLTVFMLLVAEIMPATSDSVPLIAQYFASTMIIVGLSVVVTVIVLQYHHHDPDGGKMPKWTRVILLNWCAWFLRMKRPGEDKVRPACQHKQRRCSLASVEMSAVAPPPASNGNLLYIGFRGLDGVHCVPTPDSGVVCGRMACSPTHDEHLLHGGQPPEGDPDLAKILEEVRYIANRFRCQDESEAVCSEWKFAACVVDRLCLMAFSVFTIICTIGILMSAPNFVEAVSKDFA

[4] = target: T1, Neuronal acetylcholine receptor; alpha3/beta4; assay: Agonist activity at alpha3beta4 nAChR expressed in HEK293 cells at 1 mM by FLIPR membrane potential assay; assay type: functional, cell-based

T1 sequence (P30926 whole entry): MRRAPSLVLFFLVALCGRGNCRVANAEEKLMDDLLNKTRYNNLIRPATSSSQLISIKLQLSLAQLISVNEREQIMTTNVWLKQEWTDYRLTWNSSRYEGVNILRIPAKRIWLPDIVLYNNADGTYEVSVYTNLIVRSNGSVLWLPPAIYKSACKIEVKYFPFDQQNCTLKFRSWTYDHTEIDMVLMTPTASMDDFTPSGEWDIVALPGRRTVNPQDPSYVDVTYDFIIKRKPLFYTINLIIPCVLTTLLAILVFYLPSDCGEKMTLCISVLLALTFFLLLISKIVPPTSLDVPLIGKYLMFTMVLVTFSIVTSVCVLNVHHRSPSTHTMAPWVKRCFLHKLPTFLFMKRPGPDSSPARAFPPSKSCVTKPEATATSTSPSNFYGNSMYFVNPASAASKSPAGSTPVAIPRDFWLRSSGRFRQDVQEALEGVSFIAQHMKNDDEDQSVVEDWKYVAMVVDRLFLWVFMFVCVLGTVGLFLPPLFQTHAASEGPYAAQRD
T1 sequence (P32297 whole entry): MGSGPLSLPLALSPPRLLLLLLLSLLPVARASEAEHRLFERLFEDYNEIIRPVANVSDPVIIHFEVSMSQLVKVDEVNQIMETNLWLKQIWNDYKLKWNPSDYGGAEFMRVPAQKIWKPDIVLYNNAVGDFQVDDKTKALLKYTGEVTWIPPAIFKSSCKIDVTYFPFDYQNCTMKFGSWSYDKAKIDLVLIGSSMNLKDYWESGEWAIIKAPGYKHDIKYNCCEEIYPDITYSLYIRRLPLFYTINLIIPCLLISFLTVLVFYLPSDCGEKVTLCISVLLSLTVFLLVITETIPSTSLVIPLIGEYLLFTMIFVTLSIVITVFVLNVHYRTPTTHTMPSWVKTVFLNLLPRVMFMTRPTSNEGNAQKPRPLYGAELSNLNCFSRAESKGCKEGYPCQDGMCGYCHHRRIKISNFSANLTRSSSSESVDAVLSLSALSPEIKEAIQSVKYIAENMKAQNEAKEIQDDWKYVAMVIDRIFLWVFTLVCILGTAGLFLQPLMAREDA

SMILES	Activity [1]	EC50 ([2]; read-out: EC50) [µM]	EC50 ([2]; read-out: pEC50 (converted)) [µM]	Ki [3] [µM]	pKi [3]	Activity [4]
CN(C)C(=O)OCCC(c1ccsc1)N(C)C (stereo not given)	Active	> 1000	1000	1000	3	
CC(CCOC(=S)N(C)C)N(C)C (stereo not given)		53		> 1000		
CC(CCOC(=O)N(C)Cc1ccccc1)N(C)C (stereo not given)		6.7		1000	3	
CCCNC(=O)OCCC(C)N(C)C (stereo not given)		95		> 1000		
CC(CCNC(=O)N(C)C)N(C)C (stereo not given)		> 3000		> 1000		Active
CC(CCCC(=O)N(C)C)N(C)C (stereo not given)	Active	1000		> 1000		
CC(CCOC(=O)N(C)c1ccc(Cl)cc1)N(C)C (stereo not given)		28	31.6	1000	3	
CN(C)C(=O)OCCC(c1ccccc1)N(C)C (stereo not given)	Active	> 1000	1000	1000	3	
CC(CCSC(=O)N(C)C)N(C)C (stereo not given)		430		> 1000		
CC(CCOC(=O)N(C)c1ccc(C#N)cc1)N(C)C (stereo not given)	Active	> 1000	1000	1000	3	
CC(CCOC(=O)N(C)c1ccccc1)N(C)C (stereo not given)		51		1000	3	
CC(CCOC(=O)NCCCc1ccccc1)N(C)C (stereo not given)	Active	> 1000	1000	> 1000		
CN(C)C(=O)OCCC(CO)N(C)C (stereo not given)	Active	> 3000		> 1000		Active
CCNC(=O)OCCC(C)N(C)C (stereo not given)		55		> 1000		
CC(CCOC(=O)N(C)CCO)N(C)C (stereo not given)		160		> 1000		
CC(C/C=C/C(=O)N(C)C)N(C)C (stereo not given)		91		> 1000		
CNC(=O)/C=C/CC(C)N(C)C (stereo not given)		150		> 1000		
CC(CCOC(N)=O)N(C)C (stereo not given)		57		> 1000		
CC(CCNC(=O)Nc1ccccc1)N(C)C (stereo not given)		> 3000		> 1000		Active
CC(CCOC(=O)NCCO)N(C)C (stereo not given)		300		> 1000		
